Earlier results on two compounds are cited in patent publication US20100173381A1, “CRYSTAL STRUCTURES OF HIV-1 PROTEASE INHIBITORS BOUND TO HIV-1 PROTEASE” (UNIVERSITY OF MASSACHUSETTS, priority 2006, published 2010).

Each structure is given as a SMILES string.

For data set [1] the following is noted: humans.
Data set [2] deals with the virus in cell cultures.
Data set [3] addresses HIV-1 protease (Human immunodeficiency virus type 1 group M subtype B, UniProt P04585).
The test system of data set [4] is drug-resistant proteases.
Data set [5] relates to drug-resistant HIV-1. The conditions noted are these: versus clinical protease inhibitors APV, LPV, ATV, SQV, IDV, NFV.
In data set [6] the test system is HIV-1 protease mutants. Conditions: M46I, T80I, P81S.

Regarding `Nc1cccc(CN2C(=O)N(Cc3cccc(N)c3)[C@H](Cc3ccccc3)[C@H](O)[C@@H](O)[C@H]2Cc2ccccc2)c1` [DMP-450], the oral bioavailability result in data set [1] was “orally bioavailable”. Also, in data set [2], the “potency against the virus in cell cultures” value is on record as “highly potent”. In data set [3], the inhibitory properties entry is “excellent inhibitory properties”.
For `COC(=O)N[C@H](C(=O)NCCCC[C@@H](CO)N(CC(C)C)S(=O)(=O)c1ccc(N)cc1)C(c1ccccc1)c1ccccc1` [PL-100], the “potency against drug-resistant proteases” value in data set [4] was “highly potent”. For the same compound, the cross-resistance profile result in data set [5] is on record as “favorable cross-resistance profile”. Besides, the “resistance of quadruple-viral mutant” value in data set [6] (K45R) is “only mild resistance”. The “resistance of single-, double- or triple-viral mutants” value in data set [6] (mutants from K45R) is reported as “did not show resistance”.
